The test system of data set [1] is prostate glands of TRAMP mice. The data set is described as follows: SERMs in prevention of prostate cancer in the TRAMP model (wholemount and histology at 20 weeks). Type of data set: in vivo, mouse. The note with it: sacrificed at 20 weeks; for Animals with prostate cancer / animals evaluated (column has no head): placebo 5/5; for Percent of animals with prostate cancer (column has no head): placebo 100%. How it is done:
Experimental design: Chemopreventive treatment of mice is initiated post-natal at 30 days. Three groups of 50 hybrid TRAMP male mice each are treated with either Tamoxifen citrate, Raloxifene (SERMs), or Faslodex (pure antiestrogen ICI 182,780). The drugs are obtained as customized sustained-release pellets (Innovative Research of America, Sarasota, Fla.) and delivered as subcutaneous implants (see preliminary data). Control animals receive placebo implant with no pharmacological activity. Animals (n=10) are sacrificed at periodic intervals, 10, 15, 20, 25 and 30 weeks age, and the efficacy of the treatment leading to either absence of tumor formation or reduction in tumor size, if present, is assessed by comparison with placebo control animals. Blood is collected to evaluate changes in serum androgens and estrogens with each treatment Prostatic tissues is saved: a) for morphometric studies; b) for histologic studies (the tissue will be fixed in 10% buffered formalin, processed and paraffin embedded); c) for molecular studies (the tissues is frozen in liquid nitrogen and stored at −70° C.). Necropsies and survival data is also recorded.
The results of the experiment reveal the relative chemopreventive efficacy of the various antiestrogens in the delay or prevention of prostate cancer in the TRAMP model. The morphological studies indicate the gross changes, if any, in the development of the prostate size and ductal pattern as a result of each treatment. Paraffinized tissue sections are stained using standard H&E techniques for histological changes such as PIN that will be assessed to monitor the appearance of precancerous lesions as a precursor of prostatic adenocarcinoma. Serum estradiol and total testosterone levels are measured for each age interval to assess any changes in these hormones and whether or not they correlate to changes in PIN. The peptide growth factor levels of TGF, TGF 1, TGF 3, and bFGF are quantitative in prostate samples taken at each interval. Corresponding peptide growth factor receptors are also assessed for EGFR and TGF RI and RII.

The subject of data set [2] is prostate of TRAMP mice. The data set is described as follows: TRAMP confirmation study: wholemount, histology, large T antigen immunohistochemistry. Type of data set: in vivo, mouse. How it is done: The present study focuses on the histological and molecular changes associated with development of prostate tumor in control animals and the mechanism of toremifene chemopreventive action with TRAMP animals which are bred, screened and treated with sustained-release drug pellets. At predetermined times, groups of 5 animals were sacrificed and their prostates were removed for analysis. The prostate glands were evaluated for the presence of tumor by histology, wholemount dissections, and large T antigen immunohistochemistry. To date, the Placebo and the Toremifene treatments have been completed for the 7, 10, 15 and 20 week time-points, and the results are described below.
Results: Prostatic wholemounts for 7,10,15, and 20 weeks for the various groups have been completed. […] By 20 weeks, there is a striking delay in tumor occurrence in the Toremifene treated group up to 35 weeks FIG. 4). […] For histological evaluation, tissue samples were fixed, processed and paraffin embedded. Sections ([…]) were cut and stained by routine H&E method.

Data set [3] relates to ventral prostate of TRAMP mice. Nature of the data set: Chemopreventive activity in TRAMP transgenic mice, absence of palpable tumor formation. The note with it: for Week at which tumor formation in the ventral prostate was noted: n=12, placebo week 17; for Animals still tumor-free: all control animals had tumors. Type of data set: in vivo, mouse. The text has this:
The study of prostate cancer chemoprevention has been hindered by the lack of appropriate animal models. The recent development of the transgenic adenocarcinoma mouse prostate (TRAMP) model enables the study of chemoprevention. In the TRAMP model, which is described in Greenberg et al., A Prostate cancer in a transgenic mouse, Proc. Natl Acad. Sci. USA, 1995, Vol. 92, pages 3439-3443, the PB-SV40 large T antigen (PB-Tag) transgene is expressed specifically in the epithelial cells of the murine prostate. As a result, this model has several advantages over currently existing models: 1) mice develop progressive forms of prostatic epithelial hyperplasia as early as 10 weeks and invasive adenocarcinoma around 18 weeks of age; 2) the metastatic spread of prostate cancer pattern mimics human prostate cancer with the common sites of metastases being lymph node, lung, kidney, adrenal gland, and bone; 3) the development as well as the progression of prostate cancer can be followed within a relatively short period of 10-30 weeks; 4) the tumors arise with prostate cancer transgene prior to the onset of clinical prostate cancer to directly test treatment with chemopreventive agents that may alter prostate carcinogenesis.
A study was undertaken to test the efficacy of chemopreventive agents in TRAMP transgenic animals (PBTag×FVBwt)(provided by Dr. Norman Greenberg, Baylor College of Medicine, Tex.). […] The TRAMP transgenic male litters were screened for the Large Tag transgene, and the positive males were used in the study. The antiestrogen toremifene, which was to be tested for its possible chemopreventive effects, was incorporated in customized pellets (Innovative Research of America, Sarasota, Fla.), and chemopreventive treatment of mice was initiated postnatally at 30 days (average mouse weight 14 g) Four groups of 10-12 animals each received subcutaneous implantations of 90 day-release toremifene-containing pellets. The diffusible drug dosage, adjusted for growth related changes in weight, was designed to deliver either a low dose (6 mg/kg) or a high dose (30 mg/kg) of toremifene. Control animals (n=IO) received placebo implants The efficacy of the treatment was measured by the absence of palpable tumor formation. The murine prostate tumors were harvested and evaluated by molecular and histological techniques

The test system of data set [4] is human stromal fibroblast cells. The data set is described as follows: TGFβ synthesis in human stromal fibroblast cells. Type of data set: cell-based.
Data set [5] has as its system TRAMP mouse ventral prostate. Nature of the data set: Histological examination (H&E) of TRAMP prostate tissue. Type of data set: in vivo. The procedure:
Tumors from the placebo and high toremifene-treated groups taken at the time of palpation were evaluated histologically. FIG. 2A is an H&E section of the ventral prostate of a 17-week-old normal adult mouse.

Data set [6] has as its system PIN. The settings on record: 60 mg daily for 4 months.
Data set [7] has as its system LNCaP tumors. The data set is described as follows: Regression of established LNCaP tumors in athymic nude mice. In kind it is in vivo. The procedure:
Materials and Methods: One million LNCaP cells in Matrigel were subcutaneously injected into each flank of athymic nude mice. A total of 40 mice were injected. After approximately 3-4 weeks, visible tumors developed. After the tumor size was recorded in two dimensions, the mice were divided into placebo and treatment groups based on equivalent tumor burden. A single pellet (placebo versus toremifene 35 mg) was subcutaneously implanted between the scapulae of each mouse. Weekly measurements of the tumor size were recorded. Tumor volume was calculated (tumor volume=[…], where L=tumor length and W=width). The tumor volume at the time of pellet implantation served as the point of reference for future comparison of that tumor's size variation. The weekly variations of each tumor volume were recorded as percent differentiation from the original measurement at pellet implantation.

This is an account of results in patent publication US20060270641A1, “Method for chemoprevention of prostate cancer” (priority 2005, published 2006).

Structures are written as SMILES.

`O=C(c1ccc(OCCN2CCCCC2)cc1)c1c(-c2ccc(O)cc2)sc2cc(O)ccc12` [Raloxifene, 6-hydroxy-2-(4-hydroxyphenyl)-3-[4-(2-piperidinoethoxy)benzoyl]benzo[b]thiophene]: in data set [1] (20 mg/kg/d), the “Animals with prostate cancer / animals evaluated (column has no head)” value was 3/10 and the “Percent of animals with prostate cancer (column has no head)” value (“Percent of animals … (column has no head)” for short) amounted to 30%.

With `CN(C)CCOc1ccc(/C(=C(/CCCl)c2ccccc2)c2ccccc2)cc1` [Toremifene], the “Delay in the occurrence of prostate cancer (wholemount analysis)” value in data set [2] (FIG. 3, placebo tumors by 15-20 weeks of age) is recorded as “up to 20 weeks”. Besides, in data set [2] (FIG. 4), the “Delay in tumor occurrence” value is listed as “up to 35 weeks”. In addition, the “Effect on ductal development and tissue differentiation (histology)” value in data set [2] (H&E sections) is “inhibited the ductal development and tissue differentiation”. For the same compound, in data set [3] (high and low toremifene groups vs placebo), the “Delay of time to palpable tumors in 25% of the animals” value was 7-8 weeks. The “Time at which tumors were palpable in 25% of the animals” value in data set [3] (high and low toremifene groups, placebo week 23) was 30-31 weeks. Further, the “Week at which tumor formation in the ventral prostate was noted” value in data set [3] (high dose (30 mg/kg) 90 day-release sc pellet) was 19 week; in data set [3] (low dose (6 mg/kg) 90 day-release sc pellet) it was 28 week. Besides, the “Increase of latency period for development of cancer in the ventral prostate” value in data set [3] (vs placebo) was “up to 11 weeks”. For the same compound, the Animals still tumor-free worked out at 60% in data set [3] (week 33, high dose (30 mg/kg)) and 72% in data set [3] (week 33, low dose (6 mg/kg)). The TGFβ synthesis result in data set [4] was “significantly induce”. Moreover, the “Mitotic index relative to placebo-treated animal” value in data set [5] (toremifene-treated 30-week-old TRAMP mouse vs placebo-treated 16-week-old) is given as “much lower”. The “Prostate histology (glandular architecture)” value in data set [5] (toremifene-treated 30-week-old TRAMP mouse, H&E, FIG. 2C) is listed as “retains much of the normal glandular architecture”. The “Acute or chronic toxicities” value in data set [6] is given as “no acute or chronic toxicities”. Moreover, the “Quality of life, including potency and libido” value in data set [6] is recorded as “unchanged”. The “Serum PSA, serum free testosterone, serum total testosterone and serum estradiol” value in data set [6] was “remained in the normal ranges”. This compound had a Complete response in data set [6] (16 patients completed) of 75%. For the same compound, the “Patients who had prostate cancer but the amount of PIN was reduced” value in data set [6] (of 16 patients) was found to be 3 patients. Moreover, the “Patients with stable disease (PIN epithelium with atrophic and degenerative changes)” value in data set [6] (of 16 patients) is given as 1 patient. The “Patients with regression of PIN to benign or atrophic prostate tissue” value in data set [6] (rebiopsy (8 biopsies)) is 12 out of 16. Further, in data set [1] (20 mg/kg/d), the “Animals with prostate cancer / animals evaluated (column has no head)” value was 1/7. Further, the “Percent of animals … (column has no head)” value in data set [1] (20 mg/kg/d) amounted to 14.2%. For the same compound, in data set [7] (toremifene 35 mg pellet, 1.90 mm^3 at pellet implantation, placebo increased to 2.33), the “Mean tumor volume after treatment” value is reported as 1.68 mm^3. For the same compound, in data set [7] (toremifene 35 mg pellet, not statistically significant vs placebo (p=0.755)), the “Mean serum PSA level” value came out at 2.80 ng/mL. Further, in data set [7] (toremifene 35 mg pellet, vs volume at pellet implantation), the “Change of mean tumor volume” value is −0.22 mm^3. Moreover, the “% Change in volume relative to day 0 of treatment” value in data set [7] (week 3, toremifene 35 mg sc pellet, N=11) was −34.58%; in data set [7] (week 4, toremifene 35 mg sc pellet, N=7) it was −61.01%; in data set [7] (week 5, toremifene 35 mg sc pellet, N=7) it was −74.51%; in data set [7] (week 6, toremifene 35 mg sc pellet, N=5), −61.72%.

Turning to `C[C@]12CC[C@@H]3c4ccc(O)cc4C[C@@H](CCCCCCCCC[S+]([O-])CCCC(F)(F)C(F)(F)F)[C@H]3[C@@H]1CC[C@@H]2O` (some centres unmarked) [Faslodex], in data set [1] (10 mg/kg/d), the “Animals with prostate cancer / animals evaluated (column has no head)” value is given as 8/11 and the “Percent of animals … (column has no head)” value came out at 72%.

For the compound `CC/C(=C(\c1ccccc1)c1ccc(OCCN(C)C)cc1)c1ccccc1` [Tamoxifen], in data set [1] (20 mg/kg/d), the “Animals with prostate cancer / animals evaluated (column has no head)” value is on record as 2/9 and the “Percent of animals … (column has no head)” value turned out to be 22%.
